Experiment: Determination of lanthanide (holmium, gadolinium) content of microspheres by complexometric titration and ICP-OES
Assay type: physicochemical
Conditions: Table 1, measured composition
Experimental: The holmium content of the microspheres was determined using the complexometric titration for aluminium that has been described in the European Pharmacopoeia. In short, approximately 50 mg of the dried microspheres is accurately weighed, and dissolved in 1 N NaOH. To this solution 1 N HCl is added and the solution is diluted to 50 ml, 5 grams hexamethylentetramine is added and the pH is adjusted to 5, using 1 N HCl. Approximately 50 mg of xylenol orange is added as an indicator, and the solution is then titrated with 0.01 M EDTA, until the colour changes from purple to yellow. Analyses were performed in triplicate.
The holmium content was measured by inductively coupled plasma optical emission spectrometry (IPC-OES). The microspheres are weighed and destructed at 100° C. with 5 ml 1 N NaOH, which was evaporated to dryness. 15 ml of 2% Nitric acid was added followed by a 1 in 50 dilution. Samples were introduced in an Optima 4300 CV (PerkinElmer; Norwalk, USA) and […] was measured at three different wavelengths (345.600, 339.898 and 347.426 nm) to accurately determine the holmium content.
The gadolinium content of the GdAcAc microspheres was determined in the same way as described in Example 1.

## holmium acetylacetonate [HoAcAc crystals]
  Ho, measured elemental composition: 31.2 % w/w
